Where a name gives a salt, the structure may show the parent alone.

Sequence of purified CK2α enzyme (P68400 whole entry): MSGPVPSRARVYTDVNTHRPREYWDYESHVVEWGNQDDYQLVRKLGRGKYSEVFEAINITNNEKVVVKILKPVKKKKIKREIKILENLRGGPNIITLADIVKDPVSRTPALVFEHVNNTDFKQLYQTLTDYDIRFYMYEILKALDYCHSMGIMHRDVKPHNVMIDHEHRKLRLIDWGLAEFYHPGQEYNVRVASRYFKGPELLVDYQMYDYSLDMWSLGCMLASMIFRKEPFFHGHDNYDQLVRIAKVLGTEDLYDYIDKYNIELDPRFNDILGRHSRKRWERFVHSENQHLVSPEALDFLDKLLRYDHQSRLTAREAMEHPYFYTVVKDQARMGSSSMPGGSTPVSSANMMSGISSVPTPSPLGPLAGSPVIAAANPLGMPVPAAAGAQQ

The target of this experiment is purified CK2α enzyme (Homo sapiens, UniProt P68400). Nature of the experiment: CK2 Protein Kinase Inhibition Assay (coupled PK/LDH assay). To be noted: CK2 enzyme 25 nM, 100 μM ATP, 37° C., Morrison equation. It is filed as biochemical. The method, then:
A coupled PK (pyruvate kinase)/LDH (lactate dehydrogenase) assay was used to measure compounds' ability to inhibit purified CK2α enzyme.
The ADP product of kinase CK2a is the cofactor for PK. Phospho(enol)pyruvate (PEP) PEP is metabolized by pyruvate kinase to yield pyruvate, which is the substrate for LDH.
Serially diluted compounds were pre-incubated for 10 min at 37° C. with and 1.5 mM […] peptide substrate, 6 U/ml PK and 10 U/ml LDH (purchased from Sigma-Aldrich), 100 μM ATP, 1.2 mM NADH, 4 mM PEP in the reaction buffer (50 mM Tris (pH 8.25), 0.1 M NaCl, 10 mM magnesium acetate). The reaction was initiated by the addition of an equal volume of purified CK2 enzyme (final concentration 25 nM) diluted in the reaction buffer. Absorbance at 340 nm was measured overtime (for 30 min) at 37° C.; as NADH was converted to NAD+ the absorbance decreases. Absorbance decrease rate (per min) was plotted against the compound concentration and Ki is determined by GraphPad Prism using Morrison equation. All data points were performed in triplicate and each compound was tested in at least two separate experiments.
To this end, K, values of less than 2.5 nM are labelled as “+++”, from 2.5 nM to 10 nM are labelled as “++”, and greater than 10 nM are labelled as “+”.
`C[S+]([O-])Cc1cc(Nc2cc(NC3CC3)n3ncc(C#N)c3n2)ccc1Cl` (racemic) [Example 1, (±)-5-((4-Chloro-3-((methylsulfinyl)methyl)phenyl)amino)-7-(cyclopropylamino)pyrazolo[1,5-a]pyrimidine-3-carbonitrile]: the Ki is below 2.5 nM.
Take `C[S+]([O-])Cc1cc(Nc2cc(NC3CC3)n3ncc(C#N)c3n2)ccc1F` (racemic) [Example 5, (±)-7-(Cyclopropylamino)-5-((4-fluoro-3-((methylsulfinyl)methyl)phenyl)amino)pyrazolo[1,5-a]pyrimidine-3-carbonitrile]: the Ki fell in the range of 2.5 to 10 nM.
With `C[S+]([O-])Cc1cc(Nc2cc(NC3CC3)n3ncc(C#N)c3n2)ccc1C#N` (racemic) [Example 6, (±)-5-((4-Cyano-3-((methylsulfinyl)methyl)phenyl)amino)-7-(cyclopropylamino)pyrazolo[1,5-a]pyrimidine-3-carbonitrile] the figure was 2.5 to 10 nM; with `CN(CCN)c1ccc(Nc2cc(NC3CC3)n3ncc(C#N)c3n2)cc1C[S+](C)[O-]` (racemic) [Example 7, (±)-5-((4-((2-Aminoethyl)(methyl)amino)-3-((methylsulfinyl)methyl)phenyl)amino)-7-(cyclopropylamino)pyrazolo[1,5-a]pyrimidine-3-carbonitrile mono trifluoroacetic acid salt], below 2.5 nM.
With `C[S+]([O-])Cc1cc(Nc2cc(NC3CC3)n3ncc(C#N)c3n2)ccc1CCN` (racemic) [Example 8, (±)-5-((4-(2-Aminoethyl)-3-((methylsulfinyl)methyl)phenyl)amino)-7-(cyclopropylamino)pyrazolo[1,5-a]pyrimidine-3-carbonitrile mono trifluoroacetic acid salt] the figure was below 2.5 nM.
The figure for `CS(=N)(=O)Cc1cc(Nc2cc(NC3CC3)n3ncc(C#N)c3n2)ccc1Cl` (racemic) [Example 12, (±)-5-((4-Chloro-3-((S-methylsulfonimidoyl)methyl)phenyl)amino)-7-(cyclopropylamino)pyrazolo[1,5-a]pyrimidine-3-carbonitrile] is 2.5 to 10 nM; for `C[S+]([O-])Cc1cc(Nc2cc(NC3CC3)n3ncc(C#N)c3n2)ccc1C1CC1` (racemic) [Example 13, (±)-5-((4-Cyclopropyl-3-((methylsulfinyl)methyl)phenyl)amino)-7-(cyclopropylamino)pyrazolo[1,5-a]pyrimidine-3-carbonitrile] it is below 2.5 nM; for `C[S+]([O-])Cc1cc(Nc2cc(NC3CC3)n3ncc(C#N)c3n2)ccc1N1CCNCC1` (racemic) [Example 14, (±)-7-(Cyclopropylamino)-5-((3-((methylsulfinyl)methyl)-4-(piperazin-1-yl)phenyl)amino)pyrazolo[1,5-a]pyrimidine-3-carbonitrile mono trifluoroacetic acid salt] it is 2.5 to 10 nM.
As for `C[S+]([O-])Cc1cc(Nc2cc(NC3CC3)n3ncc(C#N)c3n2)ccc1CN` (racemic) [Example 15, (±)-5-((4-(Aminomethyl)-3-((methylsulfinyl)methyl)phenyl)amino)-7-(cyclopropylamino)pyrazolo[1,5-a]pyrimidine-3-carbonitrile mono trifluoroacetic acid salt], the Ki is 2.5 to 10 nM.
Turning to `CN(CC1CC1)c1ccc(Nc2cc(NC3CC3)n3ncc(C#N)c3n2)cc1C[S+](C)[O-]` (racemic) [Example 16, (±)-7-(Cyclopropylamino)-5-((4-((cyclopropylmethyl)(methyl)amino)-3-((methylsulfinyl)methyl)phenyl)amino)pyrazolo[1,5-a]pyrimidine-3-carbonitrile], the inhibition constant Ki is below 2.5 nM.
The figure for `CNCCN(C)c1ccc(Nc2cc(NC3CC3)n3ncc(C#N)c3n2)cc1C[S+](C)[O-]` (racemic) [Example 21, (±)-7-(Cyclopropylamino)-5-((4-(methyl(2-(methylamino)ethyl)amino)-3-((methylsulfinyl)methyl)phenyl)amino)pyrazolo[1,5-a]pyrimidine-3-carbonitrile mono trifluoroacetic acid salt] is below 2.5 nM; for `C[S+]([O-])Cc1cc(Nc2cc(NC3CC3)n3ncc(C#N)c3n2)ccc1N1CC(O)C1` (racemic) [Example 27, (±)-7-(cyclopropylamino)-5-((4-(3-hydroxyazetidin-1-yl)-3-((methylsulfinyl)methyl)phenyl)amino)pyrazolo[1,5-a]pyrimidine-3-carbonitrile] it is below 2.5 nM.
The figure for `C[S+]([O-])Cc1cc(Nc2cc(NC3CC3)n3ncc(C#N)c3n2)ccc1OCC1(N)CC1` (racemic) [Example 28, (±)-5-((4-((1-aminocyclopropyl)methoxy)-3-((methylsulfinyl)methyl)phenyl)amino)-7-(cyclopropylamino)pyrazolo[1,5-a]pyrimidine-3-carbonitrile mono trifluoroacetic acid salt] is 2.5 to 10 nM; for `C[S+]([O-])Cc1cc(Nc2cc(NC3CC3)n3ncc(C#N)c3n2)ccc1OCC(C)(C)N` (racemic) [Example 30, (±)-5-((4-(2-amino-2-methylpropoxy)-3-((methylsulfinyl)methyl)phenyl)amino)-7-(cyclopropylamino)pyrazolo[1,5-a]pyrimidine-3-carbonitrile mono trifluoroacetic acid salt] it is 2.5 to 10 nM.
With `C[S+]([O-])Cc1cc(Nc2cc(NC3CC3)n3ncc(C#N)c3n2)ccc1-c1cn[nH]c1` (racemic) [Example 35, (±)-7-(Cyclopropylamino)-5-((3-((methylsulfinyl)methyl)-4-(1H-pyrazol-4-yl)phenyl)amino)pyrazolo[1,5-a]pyrimidine-3-carbonitrile] the figure was above 10 nM; with `CN(c1ccc(Nc2cc(NC3CC3)n3ncc(C#N)c3n2)cc1C[S+](C)[O-])C1CC1` (racemic) [Example 36, (±)-5-((4-(Cyclopropyl(methyl)amino)-3-((methylsulfinyl)methyl)phenyl)amino)-7-(cyclopropylamino)pyrazolo[1,5-a]pyrimidine-3-carbonitrile], below 2.5 nM; with `C[S+]([O-])Cc1cc(Nc2cc(NC3CC3)n3ncc(C#N)c3n2)ccc1C1(CN)CC1` (racemic) [Example 38, (±)-5-((4-(1-(Aminomethyl)cyclopropyl)-3-((methylsulfinyl)methyl)phenyl)amino)-7-(cyclopropylamino)pyrazolo[1,5-a]pyrimidine-3-carbonitrile], 2.5 to 10 nM.
Turning to `C[S+]([O-])Cc1cc(Nc2cc(NC3CC3)n3ncc(C#N)c3n2)ccc1N1CC(N)C1` (racemic) [Example 40, (±)-5-((4-(3-Aminoazetidin-1-yl)-3-((methylsulfinyl)methyl)phenyl)amino)-7-(cyclopropylamino)pyrazolo[1,5-a]pyrimidine-3-carbonitrile], the Ki was below 2.5 nM.
For the compound `C[S+]([O-])Cc1cc(Nc2cc(NC3CC3)n3ncc(C#N)c3n2)ccc1N1CC(CN)C1` (racemic) [Example 42, (±)-5-((4-(3-(Aminomethyl)azetidin-1-yl)-3-((methylsulfinyl)methyl)phenyl)amino)-7-(cyclopropylamino)pyrazolo[1,5-a]pyrimidine-3-carbonitrile], the inhibition constant Ki was below 2.5 nM.
The figure for `CN(c1ccc(Nc2cc(NC3CC3)n3ncc(C#N)c3n2)cc1C[S+](C)[O-])C1CNC1` (racemic) [Example 44, (±)-5-((4-(Azetidin-3-yl(methyl)amino)-3-((methylsulfinyl)methyl)phenyl)amino)-7-(cyclopropylamino)pyrazolo[1,5-a]pyrimidine-3-carbonitrile] is 2.5 to 10 nM; for `C[S+]([O-])Cc1cc(Nc2cc(NC3CC3)n3ncc(C#N)c3n2)ccc1N1CCCC1` (racemic) [Example 46, (±)-7-(Cyclopropylamino)-5-((3-((methylsulfinyl)methyl)-4-(pyrrolidin-1-yl)phenyl)amino)pyrazolo[1,5-a]pyrimidine-3-carbonitrile] it is below 2.5 nM.
`CN(CCN)c1ccc(Nc2cc(NC3CC3)c3ncc(C#N)n3n2)cc1C[S+](C)[O-]` (racemic) [Example 47, (±)-6-((4-((2-Aminoethyl)(methyl)amino)-3-((methylsulfinyl)methyl)phenyl)amino)-8-(cyclopropylamino)imidazo[1,2-b]pyridazine-3-carbonitrile mono trifluoroacetic acid salt] returned an inhibition constant Ki of 2.5 to 10 nM.
The figure for `CN(CCN)c1ccc(Nc2nc(NC3CC3)c3ncc(C#N)n3n2)cc1C[S+](C)[O-]` (racemic) [Example 49, (±)-2-((4-((2-aminoethyl)(methyl)amino)-3-((methylsulfinyl)methyl)phenyl)amino)-4-(cyclopropylamino)imidazo[2,1-f][1,2,4]triazine-7-carbonitrile mono trifluoroacetic acid salt] is 2.5 to 10 nM; for `CN(CCN)c1ccc(Nc2nc(NC3CC3)n3ncc(C#N)c3n2)cc1C[S+](C)[O-]` (racemic) [Example 51, (±)-2-((4-((2-aminoethyl)(methyl)amino)-3-((methylsulfinyl)methyl)phenyl)amino)-4-(cyclopropylamino)pyrazolo[1,5-a][1,3,5]triazine-8-carbonitrile mono trifluoroacetic acid salt] it is below 2.5 nM.

The values above are taken from patent publication US10227344B2, “CK2 inhibitors, compositions and methods thereof” (Polaris Pharmaceuticals, Inc., priority 2016, dated 2019).
